In patent US20240294541A1, “COMPOUNDS CONSTITUTING C20-MODIFIED SALINOMYCIN DERIVATIVES, A METHOD FOR OBTAINING THE SAME, A COMPOSITION CONTAINING THE SAME AND A USE OF SAID COMPOUNDS” (FILECLO SPOLKA Z OGRANICZONA ODPOWIEDZIALNOSCIA, priority 2021, published 2024):

Columns and labels:
Assay type in all cases: cell-based
[1] = system: NCI-H23 (human lung cancer); test: In vitro cytotoxicity, SRB assay, NCI-H23; conditions: for IC50: Homo sapiens, NCI-H23, 72 h with compound, SRB, n/a = non-active compound, read-out: NCI-H23 IC50; for NCI-H23 SI: selectivity coefficient vs normal BALB/3T3 cells
[2] = system: PFSK-1 (malignant primitive neuroectodermal tumour); test: In vitro cytotoxicity, SRB assay, PFSK-1; conditions: for IC50: Homo sapiens, PFSK-1, 72 h with compound, SRB, n/a = non-active compound, read-out: PFSK-1 IC50; for PFSK-1 SI: selectivity coefficient vs normal BALB/3T3 cells
[3] = system: A2780 (human ovarian cancer); test: In vitro cytotoxicity, SRB assay, A2780; conditions: for IC50: Homo sapiens, A2780, 72 h with compound, SRB, n/a = non-active compound, read-out: A2780 IC50; for A2780 SI: selectivity coefficient vs normal BALB/3T3 cells
[4] = system: A2780Cis (cisplatin-resistant human ovarian cancer); test: In vitro cytotoxicity, SRB assay, A2780Cis; conditions: for IC50: Homo sapiens, A2780cis, 72 h, read-out: A2780Cis IC50 (nM)
[5] = system: A375 (human melanoma); test: In vitro cytotoxicity, SRB assay, A375; conditions: for IC50: Homo sapiens, A-375, 72 h with compound, SRB, n/a = non-active compound, read-out: A375 IC50; for A375 SI: selectivity coefficient vs normal BALB/3T3 cells
[6] = system: Hs294T (human melanoma); test: cells; conditions: for IC50: Homo sapiens, Hs 294T, 72 h with compound, SRB, n/a = non-active compound, read-out: Hs294T IC50; for Hs294T SI: selectivity coefficient vs normal BALB/3T3 cells
[7] = system: PLC/PRF/5 (human liver cancer); test: cells; conditions: for IC50: Homo sapiens, PLC-PRF-5, 72 h with compound, SRB, n/a = non-active compound, read-out: PLC/PRF/5 IC50; for PLC/PRF/5 SI: selectivity coefficient vs normal BALB/3T3 cells
[8] = system: SNU-16 (human gastric cancer); test: cells; conditions: for IC50: Homo sapiens, SNU-16, 72 h with compound, MTT, n/a = non-active compound, read-out: SNU-16 IC50; for SNU-16 SI: selectivity coefficient vs normal BALB/3T3 cells
[9] = system: KG-1 (human acute myeloid leukaemia); test: In vitro cytotoxicity, MTT assay, KG-1; conditions: for IC50: Homo sapiens, 72 h with compound, MTT, n/a = non-active compound; for KG-1 SI: selectivity coefficient vs normal BALB/3T3 cells
[10] = system: MIA PaCa-2 (human pancreatic cancer); test: cells; conditions: for IC50: Homo sapiens, MIA PaCa-2, 72 h with compound, SRB, n/a = non-active compound, read-out: MIA PaCa-2 IC50; for MIA PaCa-2 SI: selectivity coefficient vs normal BALB/3T3 cells
[11] = system: BALB/3T3 (normal mouse fibroblasts); test: In vitro cytotoxicity, SRB assay, normal BALB/3T3 fibroblasts; conditions: Mus musculus, BALB/3T3; normal cells; 72 h with compound, SRB; n/a = non-active compound; read-out: BALB/3T3 IC50

SMILES | IC50 [1] | NCI-H23 SI [1] | IC50 [2] | PFSK-1 SI [2] | IC50 [3] | A2780 SI [3] | A2780Cis RI [4] | A2780Cis SI [4] | IC50 [4] | IC50 [5] | A375 SI [5] | IC50 [6] | Hs294T SI [6] | IC50 [7] | PLC/PRF/5 SI [7] | IC50 [8] | SNU-16 SI [8] | IC50 [9] | KG-1 SI [9] | IC50 [10] | further results
CCCCNC(=S)N[C@@H]1C=C[C@]2(O[C@H]([C@@H](CC)C(=O)[C@@H](C)[C@@H](O)[C@H](C)[C@@H]3O[C@@H]([C@@H](CC)C(=O)O)CC[C@@H]3C)[C@@H](C)C[C@H]2C)O[C@@]12CC[C@@](C)([C@H]1CC[C@](O)(CC)[C@H](C)O1)O2 [FLC-00368-1] | 18.4 nM | 7.1 | 18.6 nM | 7.0 | 3.54 nM | 37.1 | 0.8 | 44.2 | 2.97 nM | 89.1 nM | 1.5 | 152 nM | 0.9 | 74.2 nM | 1.8 | 16 nM | 8.2 | 28.2 nM | 4.7 | 88.1 nM | MIA PaCa-2 SI [10]: 1.5; IC50 [11]: 131 nM
CC[C@@H](C(=O)[C@@H](C)[C@@H](O)[C@H](C)[C@@H]1O[C@@H]([C@@H](CC)C(=O)O)CC[C@@H]1C)[C@H]1O[C@]2(C=C[C@@H](NC(=S)NCC(C)C)[C@]3(CC[C@@](C)([C@H]4CC[C@](O)(CC)[C@H](C)O4)O3)O2)[C@H](C)C[C@@H]1C [FLC-00369-1] | 5.98 nM | 13.8 | 5.84 nM | 14.1 | 5.08 nM | 16.2 | 0.4 | 44.8 | 1.84 nM | 49.6 nM | 1.7 | 106 nM | 0.8 | 12.4 nM | 6.6 | 16 nM | 5.1 | 11.7 nM | 7.1 | 44.7 nM | MIA PaCa-2 SI [10]: 1.8; IC50 [11]: 82.3 nM
CC[C@@H](C(=O)[C@@H](C)[C@@H](O)[C@H](C)[C@@H]1O[C@@H]([C@@H](CC)C(=O)O)CC[C@@H]1C)[C@H]1O[C@]2(C=C[C@@H](NC(=O)Nc3ccc(OC)cc3)[C@]3(CC[C@@](C)([C@H]4CC[C@](O)(CC)[C@H](C)O4)O3)O2)[C@H](C)C[C@@H]1C [FLC-00371-1] | 4.54 nM | 20.4 | 5.13 nM | 18.0 | 2.35 nM | 39.3 | 0.1 | 413.4 | 0.22 nM | 43.3 nM | 2.1 | 67.7 nM | 1.4 | 12.8 nM | 7.2 | 14.8 nM | 6.2 | 22.1 nM | 4.2 | 31.3 nM | MIA PaCa-2 SI [10]: 3.0; IC50 [11]: 92.3 nM
CC[C@@H](C(=O)[C@@H](C)[C@@H](O)[C@H](C)[C@@H]1O[C@@H]([C@@H](CC)C(=O)O)CC[C@@H]1C)[C@H]1O[C@]2(C=C[C@@H](NC(=S)NC3CCCCC3)[C@]3(CC[C@@](C)([C@H]4CC[C@](O)(CC)[C@H](C)O4)O3)O2)[C@H](C)C[C@@H]1C [FLC-00377-1] | 5.7 nM | 12.9 | 7.82 nM | 9.4 | 3.55 nM | 20.6 | 0.4 | 47.2 | 1.56 nM | 65.5 nM | 1.1 | 94.8 nM | 0.8 | 18.8 nM | 3.9 | 51.8 nM | 1.4 | 18.3 nM | 4.0 | 41.6 nM | MIA PaCa-2 SI [10]: 1.8; IC50 [11]: 73.3 nM
